Consider 37 compounds from US7557110B2, “Pyrazolo[1,5-A] pyrimidine derivatives” (Teijin Pharma Limited, priority 2003, dated 2009).

Experiment [1] has as its target MAPKAP-K2 (Homo sapiens, UniProt P49137). The experiment in a line: MAPKAP-K2 enzyme activity inhibition (33P-ATP filter plate kinase assay). Also: key: +: active; ++: more active; +++: very active. It counts as biochemical. Conditions: MAPKAP-K2 inhibitory activity; assays conducted at typically 1-100 μM. On the procedure: [General Procedure for Measurement of MAPKAP-K2 Enzyme Activity Inhibition]
After conducting the reaction for 30 minutes at room temperature, an equivalent volume of a 200 mM phosphoric acid solution was added to suspend the reaction, and 90 μL of the reaction product was adsorbed onto a MultiScreen PH plate (Millipore) and rinsed with a 100 mM phosphoric acid solution. After drying the plate, 30 μL of MicroScint-O (Packard BioScience) was added, and the cpm was measured with a scintillation counter to determine the inhibiting activity. Substrate peptide is […]

Experiment [2] concerns the target CDK-2 (Homo sapiens, UniProt P24941). The experiment in a line: CDK-2 enzyme activity inhibition (33P-ATP filter plate kinase assay). It counts as biochemical. From the text:
[General Procedure for Measurement of CDK-2 Enzyme Activity Inhibition]

The mark [3] stands for this setting: read-out: CDK-2 inhibition IC50.

Read-outs that look alike come from different tables or passages of the source.

Chain of MAPKAP-K2 (P49137 whole entry): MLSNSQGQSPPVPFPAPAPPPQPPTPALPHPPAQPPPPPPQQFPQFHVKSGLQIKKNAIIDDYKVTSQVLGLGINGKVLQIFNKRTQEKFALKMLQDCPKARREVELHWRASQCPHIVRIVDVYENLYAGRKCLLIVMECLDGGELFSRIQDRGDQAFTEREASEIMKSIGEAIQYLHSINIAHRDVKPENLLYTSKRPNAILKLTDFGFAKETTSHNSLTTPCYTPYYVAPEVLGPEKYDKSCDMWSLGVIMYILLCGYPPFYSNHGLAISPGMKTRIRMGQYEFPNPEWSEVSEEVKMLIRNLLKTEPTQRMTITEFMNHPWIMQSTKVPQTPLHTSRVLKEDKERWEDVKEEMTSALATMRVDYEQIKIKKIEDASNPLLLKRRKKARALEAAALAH

A word on the IC50: it is the concentration that gives 50% inhibition. Regarding `N#Cc1cnn2c(Nc3ccc(F)c(Cl)c3)cc(N[C@H]3CC[C@H](N)CC3)nc12` [Compound 1], the “activity (efficacy against MAPKAP-K2)” value in experiment [1] is on record as “++”. Also, the 50% inhibitory concentration (IC50) in experiment [2] is < 100 µM.

With `N[C@H]1CC[C@H](Nc2cc(NCc3ccc(F)c(Cl)c3)n3ncc(Br)c3n2)CC1` [Compound 13], in experiment [1], the “activity (efficacy against MAPKAP-K2)” value is “+”. In experiment [2] (setting [3]), the 50% inhibitory concentration (IC50) was < 100 µM.

Consider `CCc1c(N[C@H]2CC[C@H](N)CC2)nc2ccnn2c1Nc1ccccc1OC` [Compound 42], for which, in experiment [1], the “activity (efficacy against MAPKAP-K2)” value was “++”. Also, the IC50 in experiment [2] (setting [3]) was < 100 µM.

Consider `N[C@H]1CC[C@H](Nc2cc(Nc3ccccc3Cl)n3ncc(I)c3n2)CC1` [Compound 47], for which, in experiment [1], the “activity (efficacy against MAPKAP-K2)” value is listed as “++”. In addition, the IC50 in experiment [2] (setting [3]) is < 100 µM.

With `CCc1c(NC2CCCNC2)nc2ccnn2c1Nc1ccc(Oc2ccc(C)cc2)cc1` (centres unmarked) [Compound 63], the “activity (efficacy against MAPKAP-K2)” value in experiment [1] was “+++”. For the same compound, the IC50 in experiment [2] (setting [3]) was < 100 µM.

Consider `CCOc1ccc(Nc2cc(N[C@H]3CC[C@H](N)CC3)nc3c(C#N)cnn23)cc1` [Compound 64], for which the “activity (efficacy against MAPKAP-K2)” value in experiment [1] is given as “+++”. Further, the IC50 in experiment [2] (setting [3]) was < 100 µM.

As to `CCOC(=O)c1cccc(Nc2c(C)c(N[C@H]3CC[C@H](N)CC3)nc3ccnn23)c1` [Compound 68], the “activity (efficacy against MAPKAP-K2)” value in experiment [1] was “+++”. Besides, in experiment [2] (setting [3]), the IC50 was < 100 µM.

Regarding `CCOC(=O)c1ccc(Nc2c(CC)c(N[C@H]3CC[C@H](N)CC3)nc3ccnn23)cc1` [Compound 70], the “activity (efficacy against MAPKAP-K2)” value in experiment [1] is on record as “+++”. The IC50 in experiment [2] (setting [3]) was < 100 µM.

As for `CCc1c(N[C@H]2CC[C@H](N)CC2)nc2ccnn2c1Nc1cccc(C)c1` [Compound 72], the “activity (efficacy against MAPKAP-K2)” value in experiment [1] is given as “+++”. Further, the IC50 in experiment [2] (setting [3]) was < 100 µM.

As for `CCc1c(N[C@H]2CC[C@H](N)CC2)nc2ccnn2c1Nc1cccc(OCc2ccccc2)c1` [Compound 74], in experiment [1], the “activity (efficacy against MAPKAP-K2)” value is recorded as “++”. The IC50 in experiment [2] (setting [3]) was < 100 µM.

With `CCOc1cccc(Nc2c(C)c(N[C@H]3CC[C@H](N)CC3)nc3ccnn23)c1` [Compound 81], the “activity (efficacy against MAPKAP-K2)” value in experiment [1] is reported as “+++”. Further, in experiment [2] (setting [3]), the IC50 is < 100 µM.

`CCCNc1c(C)c(N[C@H]2CC[C@H](N)CC2)nc2ccnn12` [Compound 87]: the “activity (efficacy against MAPKAP-K2)” value in experiment [1] is “++”. Besides, the IC50 in experiment [2] (setting [3]) is < 100 µM.

As to `Cc1ccc(Nc2c(C)c(NC3CCCNC3)nc3ccnn23)cc1C` (centres unmarked) [Compound 89], the “activity (efficacy against MAPKAP-K2)” value in experiment [1] is recorded as “+++”. Also, the IC50 in experiment [2] (setting [3]) is < 100 µM.

Consider `COc1cccc(Nc2c(C)c(N[C@H]3CC[C@H](N)CC3)nc3ccnn23)c1` [Compound 91], for which, in experiment [1], the “activity (efficacy against MAPKAP-K2)” value is reported as “++”. The 50% inhibitory concentration (IC50) in experiment [2] (setting [3]) was < 100 µM.

As for `Cc1c(NC2CCCNC2)nc2ccnn2c1Nc1ccc(I)cc1` (centres unmarked) [Compound 105], the “activity (efficacy against MAPKAP-K2)” value in experiment [1] is given as “+++”. Besides, in experiment [2] (setting [3]), the IC50 is < 100 µM.

In the case of `CCOc1ccc(Nc2c(C(C)C)c(N[C@H]3CC[C@H](N)CC3)nc3ccnn23)cc1` [Compound 114], the “activity (efficacy against MAPKAP-K2)” value in experiment [1] is recorded as “+++”. Also, in experiment [2] (setting [3]), the IC50 is < 100 µM.

In the case of `CCc1c(N[C@H]2CC[C@H](N)CC2)nc2ccnn2c1Nc1ccc(N2CCCC2=O)cc1` [Compound 125], in experiment [1], the “activity (efficacy against MAPKAP-K2)” value is “++”. In addition, the IC50 in experiment [2] (setting [3]) was < 100 µM.

On to `Cc1c(N[C@H]2CC[C@H](N)CC2)nc2ccnn2c1Nc1ccc2cn[nH]c2c1` [Compound 131], for which the “activity (efficacy against MAPKAP-K2)” value in experiment [1] is listed as “+++”. Moreover, the IC50 in experiment [2] (setting [3]) is < 100 µM.

On to `CCOC(=O)c1ccc(Nc2c(CC)c(N[C@H]3CC[C@H](N)CC3)nc3ccnn23)cc1Cl` [Compound 137], for which the “activity (efficacy against MAPKAP-K2)” value in experiment [1] is recorded as “+++”. The IC50 in experiment [2] (setting [3]) is < 100 µM.

With `CCOc1ccc(Nc2c(-c3ccc(OC)cc3)c(N[C@H]3CC[C@H](N)CC3)nc3ccnn23)cc1` [Compound 140], the “activity (efficacy against MAPKAP-K2)” value in experiment [1] is on record as “+++”. Further, the IC50 in experiment [2] (setting [3]) is < 100 µM.

In the case of `Cc1c(NC2CCCNC2)nc2ccnn2c1Nc1ccccc1F` (centres unmarked) [Compound 156], in experiment [1], the “activity (efficacy against MAPKAP-K2)” value was “+++”. In addition, the IC50 in experiment [2] (setting [3]) is < 100 µM.

Take `CCc1c(NC2CCCNC2)nc2ccnn2c1Nc1ccc(Br)cc1` (centres unmarked) [Compound 160]: in experiment [1], the “activity (efficacy against MAPKAP-K2)” value is recorded as “++”. Moreover, the IC50 in experiment [2] (setting [3]) is < 100 µM.

As to `N#Cc1cnn2c(Nc3ccccc3Cl)cc(N[C@H]3CC[C@H](N)CC3)nc12` [Compound 170], the “activity (efficacy against MAPKAP-K2)” value in experiment [1] is “+++”. Also, in experiment [2] (setting [3]), the IC50 is < 100 µM.

For `COc1c(N[C@H]2CC[C@H](N)CC2)nc2ccnn2c1Nc1ccc(F)c(Cl)c1` [Compound 172], in experiment [1], the “activity (efficacy against MAPKAP-K2)” value is “++”. The IC50 in experiment [2] (setting [3]) was < 100 µM.

In the case of `CCOc1ccc(Nc2c(OC)c(NC3CCCNC3)nc3ccnn23)cc1` (centres unmarked) [Compound 173], the “activity (efficacy against MAPKAP-K2)” value in experiment [1] is reported as “+++”. The IC50 in experiment [2] (setting [3]) is < 100 µM.

For `Cc1c(N[C@H]2CC[C@H](N)CC2)nc2ccnn2c1Nc1ccc(OCc2ccccc2)cc1` [Compound 176], in experiment [1], the “activity (efficacy against MAPKAP-K2)” value is recorded as “+++”. In addition, in experiment [2] (setting [3]), the IC50 was < 100 µM.

For `Cc1c(N[C@H]2CC[C@H](N)CC2)nc2ccnn2c1Nc1ccc(OC(F)(F)F)cc1` [Compound 179], the “activity (efficacy against MAPKAP-K2)” value in experiment [1] is listed as “+++”. Further, the IC50 in experiment [2] (setting [3]) is < 100 µM.

In the case of `Cc1c(NC2CCCNC2)nc2ccnn2c1Nc1ccc(F)c(Cl)c1` (centres unmarked) [Compound 191], the “activity (efficacy against MAPKAP-K2)” value in experiment [1] is “+++”. The IC50 in experiment [2] was < 100 µM.

Consider `Cc1c(N[C@H]2CC[C@H](N)CC2)nc2ccnn2c1Nc1ccc(O)cc1` [Compound 196], for which the “activity (efficacy against MAPKAP-K2)” value in experiment [1] was “+++”. In addition, the IC50 in experiment [2] (setting [3]) was < 100 µM.

`Cc1c(N[C@H]2CC[C@H](N)CC2)nc2ccnn2c1Nc1ccc(OC(C)C)cc1` [Compound 197, {5-[(trans-4-aminocyclohexyl)amino]-6-methyl(pyrazolo[1,5-a]pyrimidin-7-yl)}[4-(methylethoxy)phenyl]amine]: the “activity (efficacy against MAPKAP-K2)” value in experiment [1] is “+++”. The IC50 in experiment [2] (setting [3]) is < 100 µM.

Turning to `Cc1c(N[C@H]2CC[C@H](N)CC2)nc2ccnn2c1Nc1ccc(OCCCl)cc1` [Compound 199], the “activity (efficacy against MAPKAP-K2)” value in experiment [1] is recorded as “+++”. Besides, in experiment [2] (setting [3]), the IC50 was < 100 µM.

For `CCCOc1ccc(Nc2c(C)c(N[C@H]3CC[C@H](N)CC3)nc3ccnn23)cc1` [Compound 201], in experiment [1], the “activity (efficacy against MAPKAP-K2)” value is reported as “+++”. In experiment [2] (setting [3]), the concentration for half-maximal inhibition (IC50) is < 100 µM.

As to `Cc1c(N[C@H]2CC[C@H](N)CC2)nc2ccnn2c1Nc1ccc(OC2CCCCC2)cc1` [Compound 202], in experiment [1], the “activity (efficacy against MAPKAP-K2)” value is “+++”. Also, in experiment [2] (setting [3]), the IC50 is < 100 µM.

Turning to `COc1ccc(Nc2c(C)c(N[C@H]3CC[C@H](N)CC3)nc3ccnn23)cc1` [Compound 203], in experiment [1], the “activity (efficacy against MAPKAP-K2)” value is “+++”. Moreover, the IC50 in experiment [2] (setting [3]) is < 100 µM.

For `Cc1c(N[C@H]2CC[C@H](N)CC2)nc2ccnn2c1Nc1ccc(OCc2ccc(N)cc2)cc1` [Compound 204], the “activity (efficacy against MAPKAP-K2)” value in experiment [1] is reported as “++”. Also, the IC50 in experiment [2] (setting [3]) was < 100 µM.

For the compound `Cc1c(N[C@H]2CC[C@H](N)CC2)nc2ccnn2c1Nc1ccc(OCc2ccc(Cl)cc2)cc1` [Compound 211], in experiment [1], the “activity (efficacy against MAPKAP-K2)” value was “+++”. In experiment [2] (setting [3]), the IC50 was < 100 µM.

As to `Cc1c(N[C@H]2CC[C@H](N)CC2)nc2ccnn2c1Nc1ccc(OCc2ccccc2Cl)cc1` [Compound 213], the “activity (efficacy against MAPKAP-K2)” value in experiment [1] is given as “+++”. Besides, in experiment [2] (setting [3]), the IC50 is < 100 µM.
